These are literature values, as cited in US12633379B2, “Visible neural network framework” (priority 2020, dated 2026).

The data set deals with 39 human cancer cell lines.
Setting [1] is: across the majority of cell lines tested in DeepSynergy, partners in FIG. 5F: MK2206, PD325901.

`COc1cc([C@@H]2c3cc4c(cc3[C@@H](O[C@@H]3O[C@@H]5CO[C@@H](C)O[C@H]5[C@H](O)[C@H]3O)[C@H]3COC(=O)[C@H]23)OCO4)cc(OC)c1O` [etoposide]: under setting [1], the “Loewe synergy in combination with AKT inhibition” value is given as “synergized strongly” and the “Loewe synergy in combination with MEK inhibition” value is “synergized strongly”. Moreover, the “Loewe synergy in combination with bortezomib” value (combined with the proteasome inhibitor bortezomib, DeepSynergy cell line panel, FIG. 12A, FIG. 5F) is “did not synergize”.
